This is an account of results in PubChem BioAssay (NCI).

“And” between values parts separate entries of the source, which are not always exact repeats. Equal entries are not always repeated.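 All cell lines were grown in 96-well plates and treated with compound for 48 hours. Abbreviation: GI50, concentration required for 50% inhibition of growth. TGI: concentration producing complete growth inhibition.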

This assay has as its system MDA-MB-468 breast. Nature of the assay: NCI-60 cell line screen, 48 h.
For the molecule `OCCNC(=S)Nc1ccc(-c2nc(N3C[C@H]4CC[C@@H](C3)O4)c3cccn3n2)cc1`, the GI50 is 17.4 nM and the TGI stood at 289 nM. `Cc1ccccc1NC(=O)N/C(N)=N/c1nc(C)c(C)s1`: the GI50 is 224 nM and the TGI worked out at 788 nM. Consider `COc1ccc(C(=O)OC2C(OC3C(O)COC(O[C@H]4C[C@H]5[C@@H]6CC=C7C[C@@H](O)CC[C@]7(C)[C@H]6CC[C@]5(C)[C@H]4[C@H](C)C(=O)CCC(C)C)C3OC(=O)C(C)C)OCC(O)C2O)cc1` (stereo partly specified), for which the GI50 is 58.3 nM and the TGI is 3550 nM. On to `O=c1ncc(I)c[nH]1`, for which the GI50 is over 100000 nM and the TGI was over 100000 nM. For `COc1ccccc1CN=C1NC(=O)/C(=C/c2ccc3ncccc3c2)S1`, the GI50 was 3350 nM and the TGI is over 25000 nM. As for `OC1CCN(CCCOc2c3ccccc3nc3c2oc2ccccc23)CC1`, the GI50 was 1760 nM and the TGI worked out at 4910 nM.

For `Cc1c(C)n(CC(O)CNC2CCCCC2C)c2ccccc12` (stereo unspecified), the GI50 is 9210 nM and the TGI was determined as 23000 nM.

For `COc1cc(/C=C/C(=O)c2ccc(F)cc2)ccc1OCCCCOc1cc2c(cc1OC)C(=O)N1CCCC1C=N2` (stereo unspecified), the GI50 is 1710 nM and the TGI turned out to be 3590 nM. Consider `CCCCCCCC(=O)SCC/C=C/[C@@H]1CC(=O)NCc2cccc(n2)C2=N[C@@](C)(CS2)C(=O)N[C@@H](C(C)C)C(=O)O1`, for which the GI50 was 107 nM and the TGI is over 33300 nM.

Regarding `O=C(/C=C/c1ccccc1)Nc1ncc(Cc2ccccc2)s1`, the GI50 is 416 nM and the TGI is over 100000 nM. Consider `COc1ccc(-c2c(-c3cc4c(c(OC)c3OC)OCO4)noc2N)cc1`, for which the GI50 was 192 nM. As to `CN(C)c1ccc(/C=N/NC(=O)CSc2nc3sc4c(c3c(=O)n2-c2ccccc2)CCCCC4)cc1`, the GI50 is 3850 nM and the TGI was over 100000 nM. `CC(C)C[C@H](NC(=O)[C@H](Cc1ccccc1)NC(=O)c1cnccn1)B(O)O`: the GI50 is < 10 nM and 1.9 nM; the TGI is < 10 nM and 5.2 nM.

On to `CCN(CC)c1ccc(CNc2cc(C)nc3ccc(OC)cc23)cc1`, for which the GI50 was 1020 nM and the TGI was found to be 2630 nM. Regarding `O=C(NCCN1CCOCC1)Nc1nc2ccc(Sc3nnc4ccc(-c5ccc(F)cc5)nn34)cc2s1`, the TGI was over 29300 nM.

`COc1ccc2nc(-c3ccc(Cl)cc3)cc(-c3nnc(SCC(=O)Nc4ccc(/C(C)=N\O)cc4)o3)c2c1`: the GI50 is 1380 nM and the TGI amounted to 3580 nM. Take `O=c1[nH]ccc2nc(N3CCC(O)CC3)nc(Nc3ccc(N4CCOCC4)cc3)c12`: the GI50 is 43200 nM and the TGI was over 100000 nM. `CC/C=C\C[C@H](O)C/C=C1/C(=O)C=C[C@@H]1C/C=C\CCCC(=O)OCCS(=O)(=O)c1ccccc1`: the GI50 was 2280 nM and the TGI amounted to 6830 nM. Take `CS(=O)(=O)c1nccc(-c2c(-c3cccc(OCc4ccccc4)c3)nc3sccn23)n1`: the GI50 is 1410 nM and the TGI came out at 3000 nM. On to `COc1ccc(Nc2[nH]n(C3=Nc4ccccc4Sc4ccccc43)c(=O)c2C#N)cc1`, for which the GI50 was 382 nM and the TGI turned out to be 2810 nM. `O=C(Nc1ccc(-n2ccc3c(NC(=O)c4ccccc4)ncnc32)cc1)Nc1ccc(Cl)c(C(F)(F)F)c1`: the GI50 was 1440 nM and the TGI turned out to be 3320 nM. Take `COc1ccc(C2CC(c3ccc4ccccc4c3)=NN2/C=C2\SC(=S)N(NC(=O)Cc3ccccc3Nc3c(Cl)cccc3Cl)C2=O)cc1` (stereo unspecified): the GI50 is 544 nM and the TGI is over 34200 nM.

Take `COc1ccc2[nH]cc(/C=N/Nc3ccnc4cc(Cl)ccc34)c2c1`: the GI50 was 1130 nM and the TGI is 2600 nM. As for `Cc1ccc(C(=O)Nc2ccc(CN3CCN(C)CC3)c(C(F)(F)F)c2)cc1C#Cc1cnc(N)c2ccc(C#N)cc12`, the GI50 was 156 nM and the TGI stood at 9630 nM.

As for `C=C(C)[C@@H]1CC[C@]2(C(=O)N3CCN(C)CC3)CC[C@]3(C)[C@H](CC[C@@H]4[C@@]5(C)C/C(=C/c6ccncc6)[C@H](O)C(C)(C)[C@@H]5CC[C@]43C)[C@@H]12`, the GI50 was 5450 nM and the TGI was determined as 26100 nM. The matching figures for `CC[C@]12C=CCN3CC[C@@]4(c5ccc(OC)cc5N(C)[C@H]4[C@@](O)(C(=O)OC)[C@@H]1OC(=O)CCCC[P+](c1ccccc1)(c1ccccc1)c1ccccc1)[C@@H]32`: 195 nM and 575 nM. Turning to `Cc1cc(NCCCNc2ccnc3cc(Cl)ccc23)nc(Nc2ccc(C(=O)N3CCCCC3)cc2)n1`, the GI50 is 2330 nM and the TGI was 4690 nM.

With `O=C1C2=C(C(=O)c3c(O)ccc(O)c31)N(c1cccnc1)Cc1ccccc1O2`, the GI50 is 175 nM and the TGI worked out at 458 nM.

On to `C/C(=N\NC(=O)c1cccc(S(=O)(=O)N2CCN(C)CC2)c1)c1cc(Cl)ccc1O`, for which the GI50 is 402 nM and the TGI worked out at 3870 nM. The matching figures for `COc1ccc2c(c1)O/C(=C\c1ccc([N+](=O)[O-])o1)C2=O`: 519 nM and 2260 nM. The corresponding values for `N#Cc1c(N)n(C2OC(CO)C(O)C2O)c2ncnc(N)c12` (stereo unspecified) are 17.3 nM and 34.9 nM. Consider `COc1ccc(NC(=O)COc2ccccc2)c(C(N)=O)c1`, for which the GI50 was 453 nM and the TGI is over 62800 nM.

On to `Oc1ccccc1/C=N/Nc1nc2ccccc2s1`, for which the GI50 is 2510 nM and the TGI came out at 60700 nM. `c1cc2c(cc1NC1=NCCO1)CCCC2`: the GI50 is 6180 nM and the TGI is 24800 nM. As for `Nc1c(C(=O)c2cccc(C(O)(CO)CO)c2)cnn1-c1ccc(F)cc1`, the GI50 was over 25000 nM and the TGI was over 25000 nM. As to `COc1ccc(/C=C(/C(=O)N2CCN(c3ccc(C)cc3)CC2)c2cc(OC)c(OC)c(OC)c2)cc1N`, the GI50 is 224 nM. Consider `COc1cc(-c2nn(-c3ccc(NC(=O)Nc4ccc(Cl)c(C(F)(F)F)c4)cc3)cc2-c2ccncc2)ccc1Cl`, for which the GI50 is 1390 nM and the TGI was 3230 nM.
